Values belong to the molecule of their own block, whether it stands above or below them.
Legend:
Experiment in all cases: radiometric filter-binding kinase assay, Kinase HotSpot
Settings in all cases: compound 0.5 µM; ATP 10 µM
[1] = molecular target: SGK3 (human) (UniProt Q96BR1)
[2] = molecular target: TSSK1B (human) (UniProt Q9BXA7)
[3] = molecular target: EPHA7 (human) (UniProt Q15375)
[4] = molecular target: CDK5 CDK5R1 p25 (human) (UniProt Q00535+Q15078)
[5] = molecular target: CSNK1D (human) (UniProt P48730)
[6] = molecular target: SIK2 (human) (UniProt Q9H0K1)
[7] = molecular target: CDC42BPB (human) (UniProt Q9Y5S2)
[8] = molecular target: NEK2 (human) (UniProt P51955)
[9] = molecular target: CSNK1G2 (human) (UniProt P78368)
[10] = molecular target: FGFR4 (human) (UniProt P22455)
[11] = molecular target: EPHA5 (human) (UniProt P54756)
[12] = molecular target: NEK3 (human) (UniProt P51956)
[13] = molecular target: DYRK1A (human) (UniProt Q13627)
[14] = molecular target: ACVR1 (human) (UniProt Q04771)
[15] = molecular target: AKT3 (human) (UniProt Q9Y243)
[16] = molecular target: TLK2 (human) (UniProt Q86UE8)
[17] = molecular target: PLK3 (human) (UniProt Q9H4B4)
[18] = molecular target: GRK4 (human) (UniProt P32298)
[19] = molecular target: CDK3 CCNE1 (human) (UniProt Q00526+P24864)
[20] = molecular target: RIPK2 (human) (UniProt O43353)
[21] = molecular target: PBK (human) (UniProt Q96KB5)
[22] = molecular target: CSNK2A1 (human) (UniProt P68400)
[23] = molecular target: ABL1 (human) (UniProt P00519)
[24] = molecular target: BLK (human) (UniProt P51451)
[25] = molecular target: DYRK1B (human) (UniProt Q9Y463)
[26] = molecular target: BRSK1 (human) (UniProt Q8TDC3)
[27] = molecular target: RPS6KA5 KD2 (human) (UniProt O75582)
[28] = molecular target: FLT3 (human) (UniProt P36888)
[29] = molecular target: IGF1R (human) (UniProt P08069)
[30] = molecular target: ROS1 (human) (UniProt P08922)
[31] = molecular target: PRKCB2 (human) (UniProt P05771)
[32] = molecular target: DAPK3 (human) (UniProt O43293)
[33] = molecular target: WEE1 (human) (UniProt P30291)
[34] = molecular target: MAP4K5 (human) (UniProt Q9Y4K4)
[35] = molecular target: ADRBK2 (human) (UniProt P35626)
[36] = molecular target: CDK7 CCNH MNAT1 (human) (UniProt P50613+P51948+P51946)
[37] = molecular target: DYRK4 (human) (UniProt Q9NR20)
[38] = molecular target: CAMK1G (human) (UniProt Q96NX5)
[39] = molecular target: MYLK2 (human) (UniProt Q9H1R3)
[40] = molecular target: MAPK11 (human) (UniProt Q15759)
[41] = molecular target: RPS6KA2 KD1 KD2 (human) (UniProt Q15349)

GRK4 (human), sequence (P32298 whole entry, looked up): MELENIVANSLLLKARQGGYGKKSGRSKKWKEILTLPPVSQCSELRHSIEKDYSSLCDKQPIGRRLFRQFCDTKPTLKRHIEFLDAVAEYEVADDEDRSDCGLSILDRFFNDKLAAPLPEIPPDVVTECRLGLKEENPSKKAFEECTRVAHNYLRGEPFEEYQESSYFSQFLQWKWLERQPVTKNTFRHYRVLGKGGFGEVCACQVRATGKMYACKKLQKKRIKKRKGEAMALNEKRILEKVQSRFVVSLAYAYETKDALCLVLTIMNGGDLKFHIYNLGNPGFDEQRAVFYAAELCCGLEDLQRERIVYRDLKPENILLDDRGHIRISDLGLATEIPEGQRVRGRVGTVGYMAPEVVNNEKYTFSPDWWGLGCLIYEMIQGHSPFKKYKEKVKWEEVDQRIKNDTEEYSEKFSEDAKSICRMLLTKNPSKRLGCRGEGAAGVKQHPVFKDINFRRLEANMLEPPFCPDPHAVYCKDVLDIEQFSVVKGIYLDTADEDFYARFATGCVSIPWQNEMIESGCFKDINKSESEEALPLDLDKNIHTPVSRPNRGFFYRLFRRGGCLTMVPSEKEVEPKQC
DAPK3 (human), sequence (O43293 whole entry, looked up): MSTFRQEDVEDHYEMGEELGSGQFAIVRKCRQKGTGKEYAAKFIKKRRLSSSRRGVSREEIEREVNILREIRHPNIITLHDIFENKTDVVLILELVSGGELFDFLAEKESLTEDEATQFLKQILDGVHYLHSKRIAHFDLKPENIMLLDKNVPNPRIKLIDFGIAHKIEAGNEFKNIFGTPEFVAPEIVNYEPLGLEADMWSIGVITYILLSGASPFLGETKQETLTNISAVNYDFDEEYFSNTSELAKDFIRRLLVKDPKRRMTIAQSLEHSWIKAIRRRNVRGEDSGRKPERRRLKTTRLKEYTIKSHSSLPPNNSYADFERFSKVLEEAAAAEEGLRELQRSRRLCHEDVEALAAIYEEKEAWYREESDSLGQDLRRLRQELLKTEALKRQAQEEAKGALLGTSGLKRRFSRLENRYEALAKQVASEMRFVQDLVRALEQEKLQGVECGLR
TLK2 (human), sequence (Q86UE8 whole entry, looked up): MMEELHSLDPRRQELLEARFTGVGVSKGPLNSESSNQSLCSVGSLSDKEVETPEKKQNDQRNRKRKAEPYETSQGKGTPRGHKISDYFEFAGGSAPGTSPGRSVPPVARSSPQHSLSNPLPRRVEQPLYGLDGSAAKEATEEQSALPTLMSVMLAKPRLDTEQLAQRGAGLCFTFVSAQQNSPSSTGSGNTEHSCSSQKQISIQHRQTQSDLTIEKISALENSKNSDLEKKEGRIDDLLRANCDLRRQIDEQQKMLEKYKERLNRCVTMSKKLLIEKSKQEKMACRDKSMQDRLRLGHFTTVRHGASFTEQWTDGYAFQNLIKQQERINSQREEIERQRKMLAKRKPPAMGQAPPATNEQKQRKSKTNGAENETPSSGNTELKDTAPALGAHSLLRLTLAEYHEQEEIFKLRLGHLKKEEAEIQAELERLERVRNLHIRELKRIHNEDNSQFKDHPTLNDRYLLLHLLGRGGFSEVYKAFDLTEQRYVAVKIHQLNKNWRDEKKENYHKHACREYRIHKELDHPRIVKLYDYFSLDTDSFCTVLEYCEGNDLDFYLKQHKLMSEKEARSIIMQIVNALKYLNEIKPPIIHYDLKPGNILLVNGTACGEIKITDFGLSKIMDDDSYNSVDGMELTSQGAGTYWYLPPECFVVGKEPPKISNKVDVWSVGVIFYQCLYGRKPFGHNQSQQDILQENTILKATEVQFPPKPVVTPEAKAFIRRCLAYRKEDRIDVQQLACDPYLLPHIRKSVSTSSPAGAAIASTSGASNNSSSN
MAP4K5 (human), sequence (Q9Y4K4 whole entry, looked up): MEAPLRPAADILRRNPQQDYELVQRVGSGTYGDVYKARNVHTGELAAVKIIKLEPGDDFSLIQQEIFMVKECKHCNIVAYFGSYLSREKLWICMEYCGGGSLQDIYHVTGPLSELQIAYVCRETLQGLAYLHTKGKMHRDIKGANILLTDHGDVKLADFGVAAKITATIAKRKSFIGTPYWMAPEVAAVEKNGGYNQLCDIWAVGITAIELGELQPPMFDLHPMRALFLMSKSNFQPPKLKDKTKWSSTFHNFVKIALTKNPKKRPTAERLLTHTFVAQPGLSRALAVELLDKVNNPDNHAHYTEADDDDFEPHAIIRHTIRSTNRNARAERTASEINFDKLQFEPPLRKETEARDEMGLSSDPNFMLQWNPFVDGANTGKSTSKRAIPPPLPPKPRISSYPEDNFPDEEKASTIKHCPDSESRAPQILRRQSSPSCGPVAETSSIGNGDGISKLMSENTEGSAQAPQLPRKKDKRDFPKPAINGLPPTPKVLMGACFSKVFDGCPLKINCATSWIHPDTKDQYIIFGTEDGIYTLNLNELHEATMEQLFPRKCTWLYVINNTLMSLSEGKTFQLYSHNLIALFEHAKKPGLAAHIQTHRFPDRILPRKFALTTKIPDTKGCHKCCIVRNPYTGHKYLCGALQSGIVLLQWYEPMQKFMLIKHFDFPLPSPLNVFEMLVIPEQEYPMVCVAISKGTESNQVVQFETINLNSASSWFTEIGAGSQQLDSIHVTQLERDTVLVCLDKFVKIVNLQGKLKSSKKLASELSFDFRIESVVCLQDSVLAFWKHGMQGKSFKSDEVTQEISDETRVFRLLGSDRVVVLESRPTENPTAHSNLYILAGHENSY
EPHA5 (human), sequence (P54756 whole entry, looked up): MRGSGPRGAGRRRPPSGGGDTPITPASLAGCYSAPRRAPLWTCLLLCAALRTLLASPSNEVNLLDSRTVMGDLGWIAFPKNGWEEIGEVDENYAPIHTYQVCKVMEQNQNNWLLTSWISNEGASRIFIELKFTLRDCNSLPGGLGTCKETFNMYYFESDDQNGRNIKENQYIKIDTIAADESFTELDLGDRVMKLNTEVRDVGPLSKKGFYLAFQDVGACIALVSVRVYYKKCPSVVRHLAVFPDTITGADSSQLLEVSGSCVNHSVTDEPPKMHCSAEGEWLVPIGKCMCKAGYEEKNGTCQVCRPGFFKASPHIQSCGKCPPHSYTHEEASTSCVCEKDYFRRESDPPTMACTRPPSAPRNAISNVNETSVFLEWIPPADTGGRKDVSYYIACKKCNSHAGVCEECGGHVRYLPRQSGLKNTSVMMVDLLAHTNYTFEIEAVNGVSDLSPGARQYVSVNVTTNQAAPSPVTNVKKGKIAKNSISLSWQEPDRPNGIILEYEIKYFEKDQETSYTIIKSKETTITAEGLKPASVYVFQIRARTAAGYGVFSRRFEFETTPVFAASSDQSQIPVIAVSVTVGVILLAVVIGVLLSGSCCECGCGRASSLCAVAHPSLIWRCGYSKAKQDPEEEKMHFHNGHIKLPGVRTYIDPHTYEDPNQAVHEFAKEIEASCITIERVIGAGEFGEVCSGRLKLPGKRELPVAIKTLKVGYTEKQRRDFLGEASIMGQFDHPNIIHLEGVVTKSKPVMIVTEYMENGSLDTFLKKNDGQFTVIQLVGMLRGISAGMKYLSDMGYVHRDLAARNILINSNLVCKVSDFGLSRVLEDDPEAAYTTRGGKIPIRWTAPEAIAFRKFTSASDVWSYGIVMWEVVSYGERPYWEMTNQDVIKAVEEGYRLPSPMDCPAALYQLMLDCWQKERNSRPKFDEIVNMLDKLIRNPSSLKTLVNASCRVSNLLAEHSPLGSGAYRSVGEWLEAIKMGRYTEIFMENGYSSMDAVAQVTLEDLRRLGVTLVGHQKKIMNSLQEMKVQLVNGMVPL
CAMK1G (human), sequence (Q96NX5 whole entry, looked up): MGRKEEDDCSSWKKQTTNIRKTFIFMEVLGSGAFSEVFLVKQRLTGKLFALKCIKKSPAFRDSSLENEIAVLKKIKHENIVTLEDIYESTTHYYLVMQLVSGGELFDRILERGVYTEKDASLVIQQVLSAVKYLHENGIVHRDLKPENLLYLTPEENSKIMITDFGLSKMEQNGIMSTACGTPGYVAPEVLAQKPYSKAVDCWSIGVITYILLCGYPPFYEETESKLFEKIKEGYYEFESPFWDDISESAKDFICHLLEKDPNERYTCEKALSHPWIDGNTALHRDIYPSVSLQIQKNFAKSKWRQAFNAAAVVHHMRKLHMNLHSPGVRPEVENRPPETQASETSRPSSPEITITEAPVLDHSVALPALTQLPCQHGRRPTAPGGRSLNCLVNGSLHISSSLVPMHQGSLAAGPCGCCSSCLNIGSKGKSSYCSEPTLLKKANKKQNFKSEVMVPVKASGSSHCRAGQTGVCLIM
CSNK2A1 (human), sequence (P68400 whole entry, looked up): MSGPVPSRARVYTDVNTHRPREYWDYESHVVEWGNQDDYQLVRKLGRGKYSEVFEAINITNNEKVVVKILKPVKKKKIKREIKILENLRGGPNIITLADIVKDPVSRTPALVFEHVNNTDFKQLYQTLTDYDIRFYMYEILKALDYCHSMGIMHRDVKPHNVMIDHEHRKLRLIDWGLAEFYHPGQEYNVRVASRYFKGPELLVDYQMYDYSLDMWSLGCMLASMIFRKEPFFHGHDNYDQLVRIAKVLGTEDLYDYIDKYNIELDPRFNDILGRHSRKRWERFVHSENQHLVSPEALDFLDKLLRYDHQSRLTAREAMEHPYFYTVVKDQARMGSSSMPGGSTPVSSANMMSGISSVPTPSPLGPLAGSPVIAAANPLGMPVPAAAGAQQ
MAPK11 (human), sequence (Q15759 whole entry, looked up): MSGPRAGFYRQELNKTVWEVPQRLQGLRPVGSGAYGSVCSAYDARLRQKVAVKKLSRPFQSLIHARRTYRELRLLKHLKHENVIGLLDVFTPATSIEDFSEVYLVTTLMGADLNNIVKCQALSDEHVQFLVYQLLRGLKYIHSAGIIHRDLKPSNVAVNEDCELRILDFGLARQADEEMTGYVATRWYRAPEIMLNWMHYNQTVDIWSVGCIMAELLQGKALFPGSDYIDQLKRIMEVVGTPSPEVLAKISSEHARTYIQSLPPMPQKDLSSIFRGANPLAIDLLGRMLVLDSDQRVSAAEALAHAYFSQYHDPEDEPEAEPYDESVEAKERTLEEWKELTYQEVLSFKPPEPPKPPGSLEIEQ

Structure (SMILES): O=C1Nc2ccc(Cl)cc2/C1=C/c1cc(Cl)c(O)c(Cl)c1
residual activity [1]: 98.6%
residual activity [2]: 88.2%
residual activity [3]: 97.5%
residual activity [4]: 82.6%
residual activity [5]: 89.6%
residual activity [6]: 95%
residual activity [7]: 91.4%
residual activity [8]: 86%
residual activity [9]: 83.5%
residual activity [10]: 98%
residual activity [11]: 99.4%
residual activity [12]: 94%
residual activity [13]: 95.6%
residual activity [14]: 130%
residual activity [15]: 96.9%
residual activity [16]: 105%
residual activity [17]: 98.2%
residual activity [18]: 108%
residual activity [19]: 85.4%
residual activity [20]: 50.2%
residual activity [21]: 86.1%
residual activity [22]: 26.5%
residual activity [23]: 84%
residual activity [24]: 102%
residual activity [25]: 90.9%
residual activity [26]: 81.3%
residual activity [27]: 86.1%
residual activity [28]: 26.5%
residual activity [29]: 98.3%
residual activity [30]: 89.7%
residual activity [31]: 97.5%
residual activity [32]: 82.3%
residual activity [33]: 79.1%
residual activity [34]: 75.9%
residual activity [35]: 102%
residual activity [36]: 96.7%
residual activity [37]: 95.7%
residual activity [38]: 96.6%
residual activity [39]: 71.5%
residual activity [40]: 99.2%
residual activity [41]: 71.9%

Structure (SMILES): CNc1cc2c(Nc3cccc(Br)c3)ncnc2cn1
residual activity [1]: 96.8%
residual activity [2]: 60.2%
residual activity [3]: 94.6%
residual activity [4]: 82.9%
residual activity [5]: 98.7%
residual activity [6]: 98.3%
residual activity [7]: 107%
residual activity [8]: 88.3%
residual activity [9]: 95.8%
residual activity [10]: 93.7%
residual activity [11]: 106%
residual activity [12]: 101%
residual activity [13]: 95.6%
residual activity [14]: 104%
residual activity [15]: 103%
residual activity [16]: 114%
residual activity [17]: 96.4%
residual activity [18]: 98.2%
residual activity [19]: 80.2%
residual activity [20]: 69.2%
residual activity [21]: 102%
residual activity [22]: 94.3%
residual activity [23]: 89.8%
residual activity [24]: 103%
residual activity [25]: 92.3%
residual activity [26]: 91.2%
residual activity [27]: 92.3%
residual activity [28]: 71.2%
residual activity [29]: 115%
residual activity [30]: 89.1%
residual activity [31]: 102%
residual activity [32]: 90.9%
residual activity [33]: 75.9%
residual activity [34]: 77.1%
residual activity [35]: 101%
residual activity [36]: 102%
residual activity [37]: 87.5%
residual activity [38]: 97.9%
residual activity [39]: 97.3%
residual activity [40]: 115%
residual activity [41]: 83.5%

Structure (SMILES): Oc1cccc(-c2nc(N3CCOCC3)c3oc4ncccc4c3n2)c1
residual activity [1]: 95.8%
residual activity [2]: 93.4%
residual activity [3]: 93.9%
residual activity [4]: 77.9%
residual activity [5]: 91.3%
residual activity [6]: 98.9%
residual activity [7]: 99.4%
residual activity [8]: 88.6%
residual activity [9]: 88.1%
residual activity [10]: 102%
residual activity [11]: 102%
residual activity [12]: 92.9%
residual activity [13]: 94.3%
residual activity [14]: 105%
residual activity [15]: 99%
residual activity [16]: 102%
residual activity [17]: 94.6%
residual activity [18]: 102%
residual activity [19]: 93.9%
residual activity [20]: 87.4%
residual activity [21]: 88.7%
residual activity [22]: 94.7%
residual activity [23]: 94.4%
residual activity [24]: 101%
residual activity [25]: 98.9%
residual activity [26]: 91.1%
residual activity [27]: 86.5%
residual activity [28]: 87.1%
residual activity [29]: 97.1%
residual activity [30]: 93.1%
residual activity [31]: 102%
residual activity [32]: 93.1%
residual activity [33]: 81.6%
residual activity [34]: 82.4%
residual activity [35]: 110%
residual activity [36]: 99.9%
residual activity [37]: 96.6%
residual activity [38]: 99.2%
residual activity [39]: 99%
residual activity [40]: 103%
residual activity [41]: 88.1%

residual activity [1]: 101%
residual activity [2]: 21.7%
residual activity [3]: 85.8%
residual activity [4]: 82%
residual activity [5]: 83.5%
residual activity [6]: 86%
residual activity [7]: 113%
residual activity [8]: 50.8%
residual activity [9]: 99.7%
residual activity [10]: 104%
residual activity [11]: 96.4%
residual activity [12]: 98.7%
residual activity [13]: 94.1%
residual activity [14]: 96.8%
residual activity [15]: 107%
residual activity [16]: 95.8%
residual activity [17]: 95%
residual activity [18]: 103%
residual activity [19]: 89.4%
residual activity [20]: 92.7%
residual activity [21]: 104%
residual activity [22]: 78.8%
residual activity [23]: 89.1%
residual activity [24]: 51.7%
residual activity [25]: 98.9%
residual activity [26]: 101%
residual activity [27]: 94.1%
residual activity [28]: 26.5%
residual activity [29]: 103%
residual activity [30]: 69.6%
residual activity [31]: 99.1%
residual activity [32]: 106%
residual activity [33]: 81.8%
residual activity [34]: 5.06%
residual activity [35]: 103%
residual activity [36]: 59.7%
residual activity [37]: 96.1%
residual activity [38]: 92.5%
residual activity [39]: 73.8%
residual activity [40]: 103%
residual activity [41]: 75.4%
Structure (SMILES): Cc1[nH]c(/C=C2\C(=O)Nc3ccc(S(=O)(=O)N(C)c4cccc(Cl)c4)cc32)c(C)c1C(=O)N1CCN(C)CC1

Reference: the kinase profiling compilation of Christmann-Franck et al. (2016)
